Patent publication US12048679B2, “P53-destabilizing protein associated with proto-oncogene stemness as a therapeutic target and inhibitors thereof for use in treatment of cancer” (University of Southern California, priority 2021, dated 2024)
Entries after “also recorded” stand apart in the source; their conditions may differ.

Assays:
[1] = system: CD133-positive TICs / CD133+ Huh7 cells; test: Viability screening, CD133-positive cells; format: cell-based; conditions: FIG. 7C middle
dsRed-labeled TICs = test: Tumor growth of dsRed-labeled TICs transplanted subcutaneously into NSG mice; format: in vivo; conditions: for tumors with fluorescence emission (dsRed imaging): FIG. 7E
Description: (§1) FIGS. 7A-7G depict that activated NOTCH can be targeted by small molecule inhibitors. • (7A) Analyses of 3D structure of TBC1D15-NOTCH1 interaction identified TBC1D15 N terminal region docking with a.a.1805-2113 of NOTCH1. […] See SEQ ID NOs:6-12 and 1, as depicted. Both were labeled with FITC and used with recombinant TBC1D15 for fluorescence polarization assay. The mutant served as a negative control. […] HA-NUMB-3D is HA-tagged phosphor-mimetic mutant of NUMB protein wherein three serine resides of phosphorylation sites are all replaced with phosphor-mimetic amino acid, D (aspartic acid), to have constitutively phosphorylated status of NUMB protein that reduce the binding ability between NOTCH and NUMB. […] We then tested the therapeutic efficacy of the Inhibitor A in the PDX model of HCC. When the two oncogenic targets were restored by use of AAV vector-mediated co-transduction of both activated N1ICD and phosphormimetic NUMB, the tumor-killing effect of Inhibitor A was negated. Inhibitor A's tumor killing effects are largely dependent upon the inhibition of NOTCH activation and suppressing NUMB phosphorylation status.
We tested the therapeutic efficacy of Inhibitor A in the patient-derived xenograft (PDX) model of HCC. […] A separate pharmacokinetic study was conducted at three doses (10, 20, 40 mg/kg) administered i.p. into NSG mice to determine blood and tissue levels of the Inhibitor and tissue histology. From these studies, we assessed pharmacokinetic, toxicity, and efficacy data to select an optimal dosing scheme.

[2] = system: CD133-negative TICs / CD133− Huh7 cells; test: Viability screening, CD133-negative control cells; format: cell-based; conditions: FIG. 7C middle
NANOG-GFP reporter = NANOG-GFP reporter in Huh7 cell line, FACS; format: cell-based; conditions: FIG. 7C right
patient HCC = test: Patient-derived xenograft (PDX) model of HCC in NSG mice; format: in vivo
Description: as §1
PDX mice were treated with the optimum dosing schedule. We monitored tumor sizes weekly three weeks post-transplantation for a total of 4 weeks (until the end of week 7). (If the tumor size reaches a diameter of ≥1.5 cm before 7 wk, we euthanized the mice per the IACUC guideline for tumor-bearing mice.) Our prior experience with the untreated HCC PDX model is 5-7 weeks are needed to generate tumors of the desired size (FIG. 7F). […]
To test the therapeutic efficacy of the new inhibitor for its effect on TBC1D15-NICD interaction, we employed a true patient-derived xenograft (PDX) HCC model (FIG. 7F). We determined if newly identified small molecule inhibitors of the TBC1D15-NICD interaction would prevent tumor growth in the HCC PDX mouse model and specifically if this therapeutic effect was negatively affected by NICD expression, NUMB-3D expression, or the co-expression of NICD and NUMB-3D.

[3] = system: HEY1-CFP reporter (NOTCH-CFP); test: HEY1-CFP (NOTCH-CFP) reporter in Huh7 cell line, FACS; format: cell-based; conditions: FIG. 7C right
[4] = system: p53, N1ICD and NANOG protein levels; test: Immunoblots of xenograft tumors; format: in vivo, NSG mice; conditions: Inhibitor A-treated xenograft tumors, FIG. 7G
Description: as §1
PDX mice were treated with the optimum dosing schedule. We monitored tumor sizes weekly three weeks post-transplantation for a total of 4 weeks (until the end of week 7). (If the tumor size reaches a diameter of ≥1.5 cm before 7 wk, we euthanized the mice per the IACUC guideline for tumor-bearing mice.) Our prior experience with the untreated HCC PDX model is 5-7 weeks are needed to generate tumors of the desired size (FIG. 7F). Experimental animals were euthanized at the end of the seven weeks study period and all tumor tissues were collected for histology for tumor characterization. Immunoblots were used to detect levels of for NANOG, TBC1D15, NICD, HES1 or HEY, CD133, p53, NUMB, and pS265-NUMB (FIG. 7G). Immunohistochemistry analysis was performed to monitor the expression of CD133, NANOG, p53, and Ki67.

[5] = molecular target: T1, TBC1D15-NOTCH interaction (Homo sapiens, UniProt Q8TC07); test: Fluorescence polarization assay of FITC-tagged NOTCH1 PEST/STR domain peptide with recombinant TBC1D15; format: binding; conditions: FIG. 7C left
T1 sequence (Q8TC07 1-691): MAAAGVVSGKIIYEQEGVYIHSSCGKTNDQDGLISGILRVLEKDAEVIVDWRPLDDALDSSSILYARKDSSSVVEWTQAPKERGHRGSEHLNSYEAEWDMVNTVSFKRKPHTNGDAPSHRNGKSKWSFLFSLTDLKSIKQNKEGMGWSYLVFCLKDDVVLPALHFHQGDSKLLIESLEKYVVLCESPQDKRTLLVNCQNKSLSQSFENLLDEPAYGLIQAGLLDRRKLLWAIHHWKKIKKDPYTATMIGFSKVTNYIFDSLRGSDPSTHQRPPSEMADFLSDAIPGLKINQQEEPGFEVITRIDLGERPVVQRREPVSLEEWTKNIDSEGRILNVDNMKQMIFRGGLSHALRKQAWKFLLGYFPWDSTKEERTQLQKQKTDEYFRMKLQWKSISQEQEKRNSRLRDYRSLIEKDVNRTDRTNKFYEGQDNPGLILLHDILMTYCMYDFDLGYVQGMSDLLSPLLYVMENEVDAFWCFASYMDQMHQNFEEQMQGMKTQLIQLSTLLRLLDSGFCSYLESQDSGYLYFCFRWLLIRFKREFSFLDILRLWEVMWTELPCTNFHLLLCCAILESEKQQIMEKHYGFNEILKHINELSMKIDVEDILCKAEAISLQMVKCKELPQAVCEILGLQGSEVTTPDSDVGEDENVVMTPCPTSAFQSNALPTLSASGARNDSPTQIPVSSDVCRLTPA
Description: FIGS. 7A-7G depict that activated NOTCH can be targeted by small molecule inhibitors. • (7A) Analyses of 3D structure of TBC1D15-NOTCH1 interaction identified TBC1D15 N terminal region docking with a.a.1805-2113 of NOTCH1. […] See SEQ ID NOs:6-12 and 1, as depicted. Both were labeled with FITC and used with recombinant TBC1D15 for fluorescence polarization assay. The mutant served as a negative control. […] HA-NUMB-3D is HA-tagged phosphor-mimetic mutant of NUMB protein wherein three serine resides of phosphorylation sites are all replaced with phosphor-mimetic amino acid, D (aspartic acid), to have constitutively phosphorylated status of NUMB protein that reduce the binding ability between NOTCH and NUMB. […]
In some embodiments, an inhibitor of TBC1D15 is a compound that inhibits binding of TBC1D15 with NOTCH, or inhibits the interaction between TBC1D15 and NOTCH. […] In yet another aspect, the inhibitor of TBC1D15 can be identified through a fluorescence polarization assay, wherein a fluorophore-labeled, binding domain of NOTCH1 (e.g., the STR domain or the PEST domain, or a peptide fragment thereof, within NICD) would have an increased fluorescence polarization (FP) when it is non-covalently bound to TBC1D15, as depicted in FIG. 7B, or a decreased FP when it is not bound to TBC1D15 due to the presence of an inhibitor of TBC1D15. […]

primary hepatocytes = test: Viability of primary hepatocytes; format: cell-based; conditions: FIG. 7C middle
Description: as §1

[6] = system: NOTCH1 (NICD level) in CD133(+) or (−) TICs; test: NOTCH1 processing: NICD produced after EDTA and DAPT treatment, Western blot; format: cell-based; conditions: 20 μM DAPT (4 h) with 5 mM EDTA (20 min), CD133-positive and negative TICs
Description: FIGS. 1M and 1N depict that TBC1D15 affects NOTCH1 processing. • (1M) Western blot analysis for expression of endogenous NOTCH1 and N1ΔE-myc tag in CD133-positive and negative TICs, transfected with N1ΔE-FL and N1ΔE-ΔPEST and treated with vehicle or 20 μM DAPT (for 4 h), and 5 mM EDTA (for 20 min). • (1N) Western blot analysis for endogenous NOTCH1 and N1ΔE-myc tag in CD133-positive and negative TICs, transfected with N1ΔE-FL, N1ΔE-ΔPEST, and N1ΔE-V1745L (inhibition of gamma-secretase cleavage) and treated with vehicle or 20 μM DAPT.
Pin1 is known to promote tumor formation by binding to the NOTCH/NICD STR domain and regulating its activity. To determine how TBC1D15 affects NOTCH1 activity, we tested whether it regulates NOTCH1 processing through a combination of a disintegrin and metalloproteinase (ADAM) 17 and γ-secretase. We overexpressed a membrane-tethered, ligand-independent wild type NOTCH1, a NOTCH1 derivative [NΔE, that is constitutively cleaved by γ-secretase, releasing active NICD (Rustighi et al., EMBO Mol Med 6, 99-119. 10.1002/emmm.201302909)], NΔE-ΔPEST, and NΔE-V1745L in CD133(+) or (−) TICs. We then analyzed the effects of TBC1D15 on endogenous NOTCH1 processing by measuring the amount of NICD produced after ethylenediaminetetraacetic acid (EDTA) and DAPT treatment in vitro.

SMILES: O=C(O)CCC/C=C\C[C@@H]1[C@@H](CC[C@@H](O)CCc2ccccc2)[C@H](O)C[C@@H]1O [Inhibitor A, (5Z,9α, 11α, 15R)-9,11,15-Trihydroxy-17-phenyl-18,19,20-trinor-prost-5-en-1-oic acid]
- toxicity to CD133-positive cells [1]: selectively killed CD133 positive TICs; also recorded: selectively kills CD133^+ Huh7 cells
- tumors with fluorescence emission (dsRed imaging) (dsRed-labeled TICs; 10 mg/kg dose): Tumors with fluorescence emission were detected
- inhibition of tumor growth (dsRed-labeled TICs; 40 mg/kg i.p. 5 times a week): significant inhibition of tumor growth
- effect on tumor growth (dsRed-labeled TICs; dose series, NSG mice with dsRed-labeled TICs, FIG. 7D): dose-dependent inhibitory effect
- tumors with fluorescence emission (dsRed imaging) (dsRed-labeled TICs; doses higher than 10 mg/kg): not in those treated with higher doses
- toxicity to CD133-negative cells [2]: not CD133^− Huh7 cells
- NANOG-GFP / NANOG promoter reporter activity (NANOG-GFP reporter): reduced HEY1 and NANOG promoter activities; also recorded: abrogates NOTCH-CFP and NANOG-GFP reporter activities
- growth suppression of patient HCC after N1ICD and HA-NUMB-3D co-transduction (patient HCC; HCC tissues infected with AAV vector delivering N1ICD and HA-NUMB-3D before transplantation): this effect largely diminished
- therapeutic effect under NICD overexpression (patient HCC; NICD overexpression): NICD overexpression blocked the therapeutic effect
- growth of patient HCC transplanted into NSG mice (patient HCC; PDX model, FIG. 7F): suppressed the growth of patient HCC
- NOTCH-CFP / HEY1 promoter reporter activity [3]: reduced HEY1 and NANOG promoter activities; also recorded: abrogates NOTCH-CFP and NANOG-GFP reporter activities
- N1ICD protein level in xenograft tumors [4]: reduced N1ICD and NANOG protein levels
- NANOG protein level in xenograft tumors [4]: reduced N1ICD and NANOG protein levels
- p53 protein level in xenograft tumors [4]: elevated p53 protein level
- inhibition of NOTCH-TBC1D15 interaction [5]: effectively blocked the NOTCH-TBC1D15 interaction; also recorded: suppressed interaction between TBC1D15 and NICD; also recorded: blocked NOTCH1/3-TBC1D15 interactions
- toxicity to primary hepatocytes (primary hepatocytes): not CD133^− Huh7 cells or primary hepatocytes

SMILES: C[C@H](NC(=O)Cc1cc(F)cc(F)c1)C(=O)N[C@H](C(=O)OC(C)(C)C)c1ccccc1 [DAPT, N—[N-(3,5-Difluorophenacetyl)-L-alanyl]-S-phenylglycine t-butyl ester]
- effect on NICD level [6]: no observed effect on NICD level
